Measurements taken from patent publication US6900338B1, “Scavenger compounds” (Yissum Research Development Company of the Hebrew …, priority 1998, dated 2005).

Assays:
[1] = test system: tissue guanylyl cyclase response to nitrates (aortic cGMP); assay: Acute effects: aortic cGMP after NTG bolus, with or without pre-treatment with the compounds; assay type: in vivo, rat
Procedure: • a) Acute effects: Rats (Spargue-Dawely) weighing 300-400 g were treated with an intravenous (i.v.) bolus dose of 2 mg nitroglycerin (NTG) before and after pre-treatment with the compounds (50 mg/kg) administered intraperitoneally. Compounds 1 and 2 from FIG. 1, compounds 9 and 10 from FIG. 2, compounds 17 and 18 from FIG. 3, compounds 25 a nd 26 from FIG. 4 were dissolved in a mixture of ethanol:propylene glycol:water (1:1:1) and administered in 1 ml intraperitoneally one hour before NTG administration. One minute after the NTG administration, the rats were sacrificed by decapitation and the aorta was removed quickly, immersed in a phosphate buffer solution containing 20 mM EDTA and immediately frozen in liquid nitrogen add stored at −70° until analyzed. Next day, the tissue were analyzed for their cGMP content. After thawing, tissue were weighed and homogenized in EDTA-phosphate buffer, centrifuged and the super collected into another tube. The pellet was washed with 1 ml buffer, vortex-mixed, centrifuged and the supernatant added to the second tube. 2 ml of acetonitrile were added to the tube containing the combined extracts and the tube vortex-mixed, centrifuged and the supernatant collected to another clean tube. […] The cGMP content of the solution was determined using a radioimmunoassay (RIA-Amersham) as previously reported by us. […]

[2] = test system: vascular (aortic) guanylyl cyclase activity; assay: Prevention of nitrate tolerance: aortic cGMP after continuous NTG infusion, with or without the compounds; assay type: in vivo, rat; conditions: for tolerance development to NTG / NO-donors (result in words): co-administration with nitrates
Procedure: • a) Acute effects: Rats (Spargue-Dawely) weighing 300-400 g were treated with an intravenous (i.v.) bolus dose of 2 mg nitroglycerin (NTG) before and after pre-treatment with the compounds (50 mg/kg) administered intraperitoneally. Compounds 1 and 2 from FIG. 1, compounds 9 and 10 from FIG. 2, compounds 17 and 18 from FIG. 3, compounds 25 a nd 26 from FIG. 4 were dissolved in a mixture of ethanol:propylene glycol:water (1:1:1) and administered in 1 ml intraperitoneally one hour before NTG administration. One minute after the NTG administration, the rats were sacrificed by decapitation and the aorta was removed quickly, immersed in a phosphate buffer solution containing 20 mM EDTA and immediately frozen in liquid nitrogen add stored at −70° until analyzed. Next day, the tissue were analyzed for their cGMP content. After thawing, tissue were weighed and homogenized in EDTA-phosphate buffer, centrifuged and the super collected into another tube. The pellet was washed with 1 ml buffer, vortex-mixed, centrifuged and the supernatant added to the second tube. 2 ml of acetonitrile were added to the tube containing the combined extracts and the tube vortex-mixed, centrifuged and the supernatant collected to another clean tube. The aqueous-acetonitrile solution in this latter tube was evaporated to dryness and the reside dissolved in assay buffer. The cGMP content of the solution was determined using a radioimmunoassay (RIA-Amersham) as previously reported by us.
Similar significant increases were also obtained when pre-treatment was performed with other compounds (see above). • b) Prevention: Rat were administered a continuos infusion of NTG known to induce tolerance with or without concomitant administration of the compounds (the same tested for the acute effects). The compounds were administered either in continuos i.v. infusion or intraperitoneally in 4 separated doses (q 6 hours). The effects on vascular (aortic) guanylyl cyclase activity was then evaluated as described above for control rats.

Compound	tissue guanylyl cyclase response to nitrates (result in words) ([1]; pre-treatment or co-administration with nitrate / NO donor)	tolerance development to NTG / NO-donors (result in words) [2]	cGMP ([1]; NTG alone, i.v. bolus 2 mg, aorta removed one minute after NTG) [pmol/g tissue]	cGMP ([2]; NTG-pretreatment: continuous NTG infusion known to induce tolerance, no compound, aorta) [pmol/g tissue]
O=C(O)CCCCC1CCSS1 (centres unmarked) [LA, 1,2-dithiolane-3-valeric acid]	enhances its activity	retards tolerance development	–	–
O=[N+]([O-])OCC(CO[N+](=O)[O-])O[N+](=O)[O-] [NTG, nitroglycerin]	–	–	175 ± 13	64 ± 9
lipoyl lipoate	–	prevents/retards tolerance development	–	–
